Values quoted from earlier work as cited in US20020090388A1, “Intravascular drug delivery device and use therefor” (priority 2000, published 2002).

Test system: primary pulmonary hypertension
Conditions: patients with primary pulmonary hypertension

## CC#CCC(C)[C@H](O)/C=C/[C@@H]1[C@H]2C/C(=C/CCCC(=O)O)C[C@H]2C[C@H]1O (stereo partly shown) [Iloprost]
  mean level of dose required to provide significant therapeutic benefits: 2.1 ng/kg/min
